Test results reported in ChEMBL document CHEMBL2346513, “Synthesis and evaluation of methylsulfonylnitrobenzamides (MSNBAs) as inhibitors of the thyroid hormone receptor-coactivator interaction” (Bioorg Med Chem Lett, 2013).

Tests used:
[1] = molecular target: T1, Thyroid hormone receptor beta (Homo sapiens, UniProt P10828); test: Inhibition of TRbeta-LBD (unknown origin) interaction to texas red-labeled SRC2-2 peptide by fluorescence polarization assay
T1 sequence (P10828 whole entry): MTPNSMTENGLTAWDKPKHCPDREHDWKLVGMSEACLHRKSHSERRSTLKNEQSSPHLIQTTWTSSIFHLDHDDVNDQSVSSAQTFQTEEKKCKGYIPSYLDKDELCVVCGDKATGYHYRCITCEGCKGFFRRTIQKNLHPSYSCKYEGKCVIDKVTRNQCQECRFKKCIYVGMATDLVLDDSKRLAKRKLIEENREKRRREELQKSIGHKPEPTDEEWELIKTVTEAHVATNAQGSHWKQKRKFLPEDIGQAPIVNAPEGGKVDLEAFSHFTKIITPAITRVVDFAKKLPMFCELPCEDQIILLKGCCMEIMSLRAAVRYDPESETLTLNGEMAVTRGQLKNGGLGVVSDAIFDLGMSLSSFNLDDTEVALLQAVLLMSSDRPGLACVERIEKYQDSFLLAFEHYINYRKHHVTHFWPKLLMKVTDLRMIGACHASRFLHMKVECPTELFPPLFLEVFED

[2] = molecular target: T2, Thyroid hormone receptor alpha (Homo sapiens, UniProt P10827); test: Inhibition of TRalpha-LBD (unknown origin) interaction to texas red-labeled SRC2-2 peptide by fluorescence polarization assay
T2 sequence (P10827 whole entry): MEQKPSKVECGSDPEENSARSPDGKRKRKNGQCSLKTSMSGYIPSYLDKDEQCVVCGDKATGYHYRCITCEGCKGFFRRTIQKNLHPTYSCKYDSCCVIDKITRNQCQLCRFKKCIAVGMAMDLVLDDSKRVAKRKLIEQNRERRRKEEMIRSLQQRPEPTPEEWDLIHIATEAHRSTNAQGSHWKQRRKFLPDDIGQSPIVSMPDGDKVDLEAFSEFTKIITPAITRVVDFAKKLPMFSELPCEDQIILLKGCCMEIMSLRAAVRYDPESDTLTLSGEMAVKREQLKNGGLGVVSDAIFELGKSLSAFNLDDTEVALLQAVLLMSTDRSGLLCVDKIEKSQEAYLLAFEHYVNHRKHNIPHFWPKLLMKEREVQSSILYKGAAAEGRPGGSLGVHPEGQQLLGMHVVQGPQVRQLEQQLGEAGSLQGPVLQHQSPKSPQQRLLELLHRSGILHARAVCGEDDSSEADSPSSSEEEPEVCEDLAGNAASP

Vitamin D3 receptor = molecular target: T3, Vitamin D3 receptor (Homo sapiens, UniProt P11473); test: Inhibition of VDR (unknown origin) interaction to SRC2-3 peptide by fluorescence polarization assay
T3 sequence (P11473 whole entry): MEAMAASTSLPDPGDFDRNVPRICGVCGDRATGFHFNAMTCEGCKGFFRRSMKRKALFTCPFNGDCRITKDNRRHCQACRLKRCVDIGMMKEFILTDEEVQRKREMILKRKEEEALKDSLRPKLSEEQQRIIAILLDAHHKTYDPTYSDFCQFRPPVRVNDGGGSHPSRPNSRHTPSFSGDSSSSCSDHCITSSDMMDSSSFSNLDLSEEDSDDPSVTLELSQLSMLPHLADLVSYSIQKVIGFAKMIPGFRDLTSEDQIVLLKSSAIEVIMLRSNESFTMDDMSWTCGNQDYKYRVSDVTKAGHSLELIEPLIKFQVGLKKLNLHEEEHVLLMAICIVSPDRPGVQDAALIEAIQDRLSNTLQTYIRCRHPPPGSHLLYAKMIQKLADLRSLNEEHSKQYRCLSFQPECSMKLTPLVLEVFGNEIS

HepG2 = test: Cytotoxicity against human HepG2 cells assessed as ATP level after 72 hrs by CellTiter-Glo assay; format: cell-based; settings: HepG2, 72 h

CN(Cc1ccccc1F)C(=O)CCNC(=O)c1ccc(S(C)(=O)=O)c([N+](=O)[O-])c1
IC50 [1]: > 60 µM | IC50 [2]: > 60 µM | IC50 (Vitamin D3 receptor): > 60 µM | EC50 (HepG2): > 27 µM

CS(=O)(=O)c1ccc(C(=O)NCCC(=O)N2CCN(c3ccccc3F)CC2)cc1[N+](=O)[O-]
IC50 [1]: > 60 µM | IC50 [2]: > 60 µM | IC50 (Vitamin D3 receptor): 66 µM | EC50 (HepG2): > 27 µM

CS(=O)(=O)c1ccc(C(=O)NCCC(=O)N2CCCc3ccccc32)cc1[N+](=O)[O-]
IC50 [1]: > 60 µM | IC50 [2]: > 60 µM | IC50 (Vitamin D3 receptor): > 60 µM | EC50 (HepG2): 10.5 µM

CS(=O)(=O)c1ccc(C(=O)N2CCC(C(=O)N3CCN(c4ccccc4F)CC3)CC2)cc1[N+](=O)[O-]
IC50 [1]: > 60 µM | IC50 [2]: > 60 µM | IC50 (Vitamin D3 receptor): > 60 µM | EC50 (HepG2): > 27 µM

CN(CC(=O)N(Cc1ccccc1)Cc1ccccc1)C(=O)c1ccc(S(C)(=O)=O)c([N+](=O)[O-])c1
IC50 [1]: > 60 µM | IC50 [2]: > 60 µM | IC50 (Vitamin D3 receptor): > 60 µM | EC50 (HepG2): > 27 µM

CCCN(C(=O)CN(C)C(=O)c1ccc(S(C)(=O)=O)c([N+](=O)[O-])c1)c1ccccc1
IC50 [1]: > 60 µM | IC50 [2]: > 60 µM | IC50 (Vitamin D3 receptor): > 60 µM | EC50 (HepG2): > 27 µM

CN(Cc1ccccc1)C(=O)C1CCN(C(=O)c2ccc(S(C)(=O)=O)c([N+](=O)[O-])c2)CC1
IC50 [1]: > 60 µM | IC50 [2]: > 60 µM | IC50 (Vitamin D3 receptor): > 60 µM | EC50 (HepG2): > 27 µM

CC1Cc2ccccc2N1C(=O)CN(C)C(=O)c1ccc(S(C)(=O)=O)c([N+](=O)[O-])c1 (stereo not given)
IC50 [1]: > 60 µM | IC50 [2]: > 60 µM | IC50 (Vitamin D3 receptor): > 60 µM | EC50 (HepG2): 5.5 µM

CS(=O)(=O)c1ccc(C(=O)NCCC(=O)N2CCc3ccccc32)cc1[N+](=O)[O-]
IC50 [1]: > 60 µM | IC50 [2]: > 60 µM | IC50 (Vitamin D3 receptor): > 60 µM | EC50 (HepG2): > 27 µM

CS(=O)(=O)c1ccc(C(=O)NCC(=O)N(Cc2ccccc2)c2ccccc2)cc1[N+](=O)[O-]
IC50 [1]: 20 µM | IC50 [2]: > 60 µM | IC50 (Vitamin D3 receptor): > 60 µM | EC50 (HepG2): > 27 µM

CS(=O)(=O)c1ccc(C(=O)NCCC(=O)N2CCCCC2)cc1[N+](=O)[O-]
IC50 [1]: > 60 µM | IC50 [2]: > 60 µM | IC50 (Vitamin D3 receptor): > 60 µM | EC50 (HepG2): > 27 µM

CS(=O)(=O)c1ccc(C(=O)NCCCC(=O)N2CCN(c3ccccc3)CC2)cc1[N+](=O)[O-]
IC50 [1]: > 60 µM | IC50 [2]: > 60 µM | IC50 (Vitamin D3 receptor): > 60 µM | EC50 (HepG2): > 27 µM

CS(=O)(=O)c1ccc(C(=O)NCCC(=O)N2CCc3ccccc3C2)cc1[N+](=O)[O-]
IC50 [1]: > 60 µM | IC50 [2]: > 60 µM | IC50 (Vitamin D3 receptor): > 60 µM | EC50 (HepG2): > 27 µM

CN1CCN(C(=O)CNC(=O)c2ccc(S(C)(=O)=O)c([N+](=O)[O-])c2)CC1
IC50 [1]: > 60 µM | IC50 [2]: > 60 µM | IC50 (Vitamin D3 receptor): > 60 µM | EC50 (HepG2): > 27 µM

CN(CC(=O)N1CCCCC1)C(=O)c1ccc(S(C)(=O)=O)c([N+](=O)[O-])c1
IC50 [1]: > 60 µM | IC50 [2]: > 60 µM | IC50 (Vitamin D3 receptor): > 60 µM | EC50 (HepG2): 11.3 µM

CN(CC(=O)NC12CC3CC(CC(C3)C1)C2)C(=O)c1ccc(S(C)(=O)=O)c([N+](=O)[O-])c1
IC50 [1]: > 60 µM | IC50 [2]: > 60 µM | IC50 (Vitamin D3 receptor): > 60 µM | EC50 (HepG2): > 27 µM

CS(=O)(=O)c1ccc(C(=O)NCCC(=O)N(Cc2ccccc2)Cc2ccccc2)cc1[N+](=O)[O-]
IC50 [1]: > 60 µM | IC50 [2]: 33 µM | IC50 (Vitamin D3 receptor): 38 µM | EC50 (HepG2): > 27 µM

CS(=O)(=O)c1ccc(C(=O)NCCCC(=O)N2CCN(c3ccccc3F)CC2)cc1[N+](=O)[O-]
IC50 [1]: > 60 µM | IC50 [2]: > 60 µM | IC50 (Vitamin D3 receptor): > 60 µM | EC50 (HepG2): > 27 µM

CS(=O)(=O)c1ccc(C(=O)NCCCC(=O)NC23CC4CC(CC(C4)C2)C3)cc1[N+](=O)[O-]
IC50 [1]: 10.6 µM | IC50 [2]: > 60 µM | IC50 (Vitamin D3 receptor): > 60 µM | EC50 (HepG2): > 27 µM

CS(=O)(=O)c1ccc(C(=O)NCCC(=O)NC23CC4CC(CC(C4)C2)C3)cc1[N+](=O)[O-]
IC50 [1]: 31 µM | IC50 [2]: 25 µM | IC50 (Vitamin D3 receptor): 44 µM | EC50 (HepG2): > 27 µM
